Target: T1, FSH receptor (Homo sapiens, UniProt P23945)
T1 sequence (P23945 18-695): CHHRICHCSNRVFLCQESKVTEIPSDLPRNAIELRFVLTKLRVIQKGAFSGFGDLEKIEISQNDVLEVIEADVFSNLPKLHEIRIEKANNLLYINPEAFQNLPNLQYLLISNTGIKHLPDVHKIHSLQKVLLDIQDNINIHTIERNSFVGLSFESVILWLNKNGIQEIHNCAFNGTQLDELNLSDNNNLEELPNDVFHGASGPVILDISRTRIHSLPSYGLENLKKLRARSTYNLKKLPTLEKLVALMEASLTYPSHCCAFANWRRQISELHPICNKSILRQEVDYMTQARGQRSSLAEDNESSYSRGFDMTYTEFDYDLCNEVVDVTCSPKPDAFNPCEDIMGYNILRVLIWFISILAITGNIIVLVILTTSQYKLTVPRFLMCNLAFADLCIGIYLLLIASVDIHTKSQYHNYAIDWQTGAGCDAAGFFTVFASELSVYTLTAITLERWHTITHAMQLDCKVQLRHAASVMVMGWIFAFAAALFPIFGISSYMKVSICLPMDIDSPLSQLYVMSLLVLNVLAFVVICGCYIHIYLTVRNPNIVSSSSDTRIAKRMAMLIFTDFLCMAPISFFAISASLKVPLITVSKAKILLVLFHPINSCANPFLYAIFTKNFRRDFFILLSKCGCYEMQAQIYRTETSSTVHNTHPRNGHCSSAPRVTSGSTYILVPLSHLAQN
Assay: In Vitro Bio-test Procedure of Agonists and Antagonists to the FSH Receptor (cAMP accumulation in CHO-3D2 cells)
Assay type: cell-based
Design: expressed in transfected cells; host or cells: CHO-3D2 cells
Details: not given
In short: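 CHO-3D2 cells (30,000/well, plated one day earlier) preincubated 30-45 min, then challenged with compounds in Optimem/0.1% BSA for 30 minutes at 37 deg C; agonist mode at 5 concentrations, antagonist mode against ED20 FSH. cAMP accumulation in medium measured by radioimmunoassay (fmol/mL); ANOVA with Dunnett's or Duncan's test.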

Row | Molecule | IC50 [nM]
1 | COCCOCCOc1ccc(C(=O)Nc2ccc(/C=C/c3ccc(NC(=O)c4ccc(OCCOCCOC)c(S(=O)(=O)N5CCOCC5)c4)cc3S(=O)(=O)O)c(S(=O)(=O)O)c2)cc1S(=O)(=O)N1CCOCC1 [Example 30a, 2,2′-[(E)-1,2-Ethenediyl]bis[5-[[4-[2-(2-methoxyethoxy)ethoxy]-3-(4-morpholinylsulfonyl)benzoyl]amino]benzenesulfonic Acid]] | 1600
2 | CS(=O)(=O)c1ccc(C(=O)Nc2ccc(/C=C/c3ccc(NC(=O)c4ccc(S(C)(=O)=O)c(S(=O)(=O)N5CCOCC5)c4)cc3S(=O)(=O)O)c(S(=O)(=O)O)c2)cc1S(=O)(=O)N1CCOCC1 [Example 30d, 2,2′-[(E)-1,2-Ethenediyl]bis[5-[[4-(methylsulfonyl)-3-(4-morpholinylsulfonyl)benzoyl]amino]benzenesulfonic Acid]] | 1600
3 | CSc1ccc(C(=O)Nc2ccc(/C=C/c3ccc(NC(=O)c4ccc(S(C)(=O)=O)c([N+](=O)[O-])c4)cc3S(=O)(=O)O)c(S(=O)(=O)O)c2)cc1S(=O)(=O)N1CCOCC1 [Example 30e] | 900
4 | COCCNS(=O)(=O)c1cc(C(=O)Nc2ccc(/C=C/c3ccc(NC(=O)c4ccc(S(C)(=O)=O)c([N+](=O)[O-])c4)cc3S(=O)(=O)O)c(S(=O)(=O)O)c2)ccc1OC [Example 30f] | 3100
5 | COc1ccc(C(=O)Nc2ccc(/C=C/c3ccc(NC(=O)c4ccc(OC)c(S(=O)(=O)N5CCS(=O)(=O)CC5)c4)cc3S(=O)(=O)O)c(S(=O)(=O)O)c2)cc1S(=O)(=O)N1CCS(=O)(=O)CC1 [Example 30k, 2,2′-[(E)-1,2-Ethenediyl]bis[5-[[3-[(1,1-dioxido-4-thiomorpholinyl)sulfonyl]-4-methoxybenzoyl]amino]benzenesulfonic Acid]] | 1500
6 | COCCNS(=O)(=O)c1cc(C(=O)Nc2ccc(/C=C/c3ccc(NC(=O)c4ccc(OC)c(S(=O)(=O)NCCOC)c4)cc3S(=O)(=O)O)c(S(=O)(=O)O)c2)ccc1OC [Example 30m, 2,2′-[(E)-1,2-Ethenediyl]bis[5-[[4-methoxy-3-[[(2-methoxyethyl)amino]sulfonyl]benzoyl]amino]benzenesulfonic Acid]] | 5800
7 | CS(=O)(=O)c1ccc(C(=O)Nc2ccc(/C=C/c3ccc(NC(=O)c4ccc(S(C)(=O)=O)cc4)cc3S(=O)(=O)O)c(S(=O)(=O)O)c2)cc1 [Example 30q, 2,2′-[(E)-1,2-Ethenediyl]bis[5-[[4-(methylsulfonyl)benzoyl]amino]benzenesulfonic Acid]] | 12000
8 | O=C(Nc1ccc(/C=C/c2ccc(NC(=O)c3ccc(OC4CCOCC4)c(S(=O)(=O)N4CCOCC4)c3)cc2S(=O)(=O)O)c(S(=O)(=O)O)c1)c1ccc(OC2CCOCC2)c(S(=O)(=O)N2CCOCC2)c1 [Example 30r, 2,2′-[(E)-1,2-Ethenediyl]bis[5-[[3-(4-morpholinylsulfonyl)-4-[(tetrahydro-2H-pyran-4-yl)oxy]benzoyl]amino]benzenesulfonic Acid]] | 2000
9 | COc1ccc(C(=O)Nc2ccc(/C=C/c3ccc(NC(=O)c4ccc(OC)c(S(=O)(=O)N5CCOCC5)c4)cc3S(=O)(=O)O)c(S(=O)(=O)O)c2)cc1S(=O)(=O)N1CCOCC1 [Example 30s, 2,2′-[(E)-1,2-Ethenediyl]bis[5-[[4-methoxy-3-(4-morpholinylsulfonyl)benzoyl]amino]benzenesulfonic Acid]] | 4400
10 | COCCOc1ccc(C(=O)Nc2ccc(/C=C/c3ccc(NC(=O)c4ccc(OCCOC)c(S(=O)(=O)N5CCOCC5)c4)cc3S(=O)(=O)O)c(S(=O)(=O)O)c2)cc1S(=O)(=O)N1CCOCC1 [Example 30t, 2,2′-[(E)-1,2-Ethenediyl]bis[5-[[4-(2-methoxyethoxy)-3-(4-morpholinylsulfony)benzoyl]amino]benzenesulfonic Acid]] | 1400
11 | CCS(=O)(=O)c1ccc(C(=O)Nc2ccc(/C=C/c3ccc(NC(=O)c4ccc(S(=O)(=O)CC)cc4)cc3S(=O)(=O)O)c(S(=O)(=O)O)c2)cc1 [Example 32f, 2,2′-[(E)-1,2-Ethenediyl]bis[5-[[4-(ethylsulfonyl)benzoyl]amino]benzenesulfonic Acid]] | 4200
12 | COc1ccc(C(=O)Nc2ccc(/C=C/c3ccc(NC(=O)c4ccc(OC)c(S(=O)(=O)N5CCSCC5)c4)cc3S(=O)(=O)O)c(S(=O)(=O)O)c2)cc1S(=O)(=O)N1CCSCC1 [Example 33d, 2,2′-[(E)-1,2-Ethenediyl]bis[5-[[4-methoxy-3-(4-thiomorpholinylsulfonyl)benzoyl]amino]benzenesulfonic Acid]] | 2600
13 | COc1ccc(C(=O)Nc2ccc(/C=C/c3ccc(NC(=O)c4ccc(OC)c(S(=O)(=O)N5CCCC5)c4)cc3S(=O)(=O)O)c(S(=O)(=O)O)c2)cc1S(=O)(=O)N1CCCC1 [Example 33e, 2,2′-[(E)-1,2-Ethenediyl]bis[5-[[4-methoxy-3-(1-pyrrolidinylsulfonyl)benzoyl]amino]benzenesulfonic Acid]] | 1500
14 | COc1ccc(C(=O)Nc2ccc(/C=C/c3ccc(NC(=O)c4ccc(OC)c(S(=O)(=O)N5CCN(C(C)=O)CC5)c4)cc3S(=O)(=O)O)c(S(=O)(=O)O)c2)cc1S(=O)(=O)N1CCN(C(C)=O)CC1 [Example 34a, 2,2′-[(E)-1,2-Ethenediyl]bis[5-[[3-[(4-acetyl-1-piperazinyl)sulfonyl]-4-methoxybenzoyl]amino]benzenesulfonic Acid]] | 3300
15 | COc1ccc(C(=O)Nc2ccc(/C=C/c3ccc(NC(=O)c4ccc(OC)c(S(=O)(=O)N5CCN(C=O)CC5)c4)cc3S(=O)(=O)O)c(S(=O)(=O)O)c2)cc1S(=O)(=O)N1CCN(C=O)CC1 [Example 34b, 2,2′-[(E)-1,2-Ethenediyl]bis[5-[[3-[(4-formyl-1-piperazinyl)sulfonyl]-4-methoxybenzoyl]amino]benzenesulfonic Acid]] | 1700
16 | COc1ccc(C(=O)Nc2ccc(CCc3ccc(NC(=O)c4ccc(S(C)(=O)=O)cc4)cc3S(=O)(=O)O)c(S(=O)(=O)O)c2)cc1S(=O)(=O)N1CCOCC1 [Example 43a, 5-[[4-Methoxy-3-(4-morpholinylsulfonyl)benzoyl]amino]-2-[2-[4-[[4-(methylsulfonyl)benzoyl]amino]-2-sulfophenyl]ethyl]benzenesulfonic Acid] | 8700

Same assay, conditions: antagonist mode, inhibition of hFSH-induced cAMP accumulation (ED20 of FSH, […]), CHO-3D2 cells

Row | Molecule | IC50 [nM]
17 | 2,2′-[(E)-1,2-Ethenediyl]bis[5-[[4-(methylthio)-3-(4-morpholinylsulfonyl)benzoyl]amino]benzenesulfonic Acid] [Example 30b] | 1300
18 | CS(=O)(=O)c1ccc(C(=O)Nc2ccc(/C=C/c3ccc(NC(=O)c4ccc(S(C)(=O)=O)c([N+](=O)[O-])c4)cc3S(=O)(=O)O)c(S(=O)(=O)O)c2)cc1[N+](=O)[O-] [Example 30c, 2.2′-[(E)-1,2-Ethenediyl]bis[5-[[(4-methylsulfonyl)-3-(nitro)-benzoyl]amino]benzenesulfonic Acid]] | 3600
19 | COc1ccc(C(=O)Nc2ccc(/C=C/c3ccc(NC(=O)c4ccc(S(C)(=O)=O)cc4)cc3S(=O)(=O)O)c(S(=O)(=O)O)c2)cc1S(=O)(=O)N1CCOCC1 [Example 30g] | 2500
